Experimental data as given in patent EP4745135A1 (Gluetacs Therapeutics (Shanghai) Co., Ltd., priority 2023, dated 2025).

How the values were obtained:
CK1α = molecular target: T1, CK1α (Homo sapiens, UniProt P48729+Q96SW2); test: Western blot, degradation of substrate protein in hPBMCs; type: cell-based; details: Western blot, 24 hours of compound treatment, compounds tested at 50 nM and 500 nM (concentration for the table not stated)
T1 construct: effects of the compounds of the present disclosure on the expression of target proteins in cells; endogenous in cells; host or cells: human PBMCs (Milecell Biotechnologies)
T1 sequence (P48729 whole entry): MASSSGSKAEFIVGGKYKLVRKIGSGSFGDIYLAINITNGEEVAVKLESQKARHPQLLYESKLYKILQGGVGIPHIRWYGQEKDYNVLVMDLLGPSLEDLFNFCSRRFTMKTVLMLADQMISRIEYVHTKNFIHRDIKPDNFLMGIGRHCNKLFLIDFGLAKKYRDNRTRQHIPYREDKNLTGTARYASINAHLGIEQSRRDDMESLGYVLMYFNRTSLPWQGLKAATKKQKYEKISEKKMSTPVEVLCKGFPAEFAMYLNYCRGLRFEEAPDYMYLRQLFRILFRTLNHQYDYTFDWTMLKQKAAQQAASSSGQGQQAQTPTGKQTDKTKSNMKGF
T1 sequence (Q96SW2 whole entry): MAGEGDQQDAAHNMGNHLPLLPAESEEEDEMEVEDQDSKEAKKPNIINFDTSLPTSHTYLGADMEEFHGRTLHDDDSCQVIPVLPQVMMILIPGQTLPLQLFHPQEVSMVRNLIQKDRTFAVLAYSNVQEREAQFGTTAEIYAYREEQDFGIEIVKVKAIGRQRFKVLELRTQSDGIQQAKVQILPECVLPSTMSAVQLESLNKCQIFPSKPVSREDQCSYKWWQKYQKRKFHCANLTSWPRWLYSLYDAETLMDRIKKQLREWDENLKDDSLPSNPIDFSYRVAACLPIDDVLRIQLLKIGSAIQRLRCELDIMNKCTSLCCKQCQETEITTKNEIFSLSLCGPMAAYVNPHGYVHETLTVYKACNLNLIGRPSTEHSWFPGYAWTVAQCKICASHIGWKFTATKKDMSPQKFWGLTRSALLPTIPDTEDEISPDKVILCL
T1 sequence (Q16531 whole entry partner): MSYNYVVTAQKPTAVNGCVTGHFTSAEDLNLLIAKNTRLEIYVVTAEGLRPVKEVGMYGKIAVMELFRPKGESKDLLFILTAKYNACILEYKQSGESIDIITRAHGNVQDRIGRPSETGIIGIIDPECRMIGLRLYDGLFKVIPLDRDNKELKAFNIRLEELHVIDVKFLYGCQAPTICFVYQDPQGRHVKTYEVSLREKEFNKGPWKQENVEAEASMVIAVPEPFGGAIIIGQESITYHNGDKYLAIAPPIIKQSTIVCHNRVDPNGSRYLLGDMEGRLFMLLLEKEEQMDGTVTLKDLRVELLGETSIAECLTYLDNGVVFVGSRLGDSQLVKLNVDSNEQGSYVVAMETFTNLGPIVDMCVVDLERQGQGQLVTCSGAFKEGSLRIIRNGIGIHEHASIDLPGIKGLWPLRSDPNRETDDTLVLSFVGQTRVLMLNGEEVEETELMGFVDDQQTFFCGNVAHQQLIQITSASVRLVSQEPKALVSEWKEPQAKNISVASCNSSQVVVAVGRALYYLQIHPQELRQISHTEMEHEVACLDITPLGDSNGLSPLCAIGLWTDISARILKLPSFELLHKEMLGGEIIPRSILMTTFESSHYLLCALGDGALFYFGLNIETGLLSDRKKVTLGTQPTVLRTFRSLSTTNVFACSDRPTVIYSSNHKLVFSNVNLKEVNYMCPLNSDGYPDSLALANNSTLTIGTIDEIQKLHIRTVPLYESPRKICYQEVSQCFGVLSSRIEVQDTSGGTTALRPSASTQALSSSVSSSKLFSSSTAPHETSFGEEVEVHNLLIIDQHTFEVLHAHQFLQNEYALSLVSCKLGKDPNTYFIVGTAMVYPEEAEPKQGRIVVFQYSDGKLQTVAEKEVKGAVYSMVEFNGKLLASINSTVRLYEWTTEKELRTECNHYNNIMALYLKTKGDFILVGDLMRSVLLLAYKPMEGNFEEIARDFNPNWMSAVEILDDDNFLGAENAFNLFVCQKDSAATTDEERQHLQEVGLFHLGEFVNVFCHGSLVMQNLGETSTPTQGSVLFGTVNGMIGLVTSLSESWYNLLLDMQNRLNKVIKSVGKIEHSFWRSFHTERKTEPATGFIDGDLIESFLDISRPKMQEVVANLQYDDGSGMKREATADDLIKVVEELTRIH

IKZF1 = molecular target: T2, IKZF1 (Homo sapiens, UniProt Q13422+Q96SW2); test: as above; type: cell-based; details: Western blot, 24 hours of compound treatment, compounds tested at 50 nM and 500 nM (concentration for the table not stated)
T2 construct: effects of the compounds of the present disclosure on the expression of target proteins in cells; endogenous in cells; host or cells: human PBMCs (Milecell Biotechnologies)
T2 sequence (Q13422 whole entry): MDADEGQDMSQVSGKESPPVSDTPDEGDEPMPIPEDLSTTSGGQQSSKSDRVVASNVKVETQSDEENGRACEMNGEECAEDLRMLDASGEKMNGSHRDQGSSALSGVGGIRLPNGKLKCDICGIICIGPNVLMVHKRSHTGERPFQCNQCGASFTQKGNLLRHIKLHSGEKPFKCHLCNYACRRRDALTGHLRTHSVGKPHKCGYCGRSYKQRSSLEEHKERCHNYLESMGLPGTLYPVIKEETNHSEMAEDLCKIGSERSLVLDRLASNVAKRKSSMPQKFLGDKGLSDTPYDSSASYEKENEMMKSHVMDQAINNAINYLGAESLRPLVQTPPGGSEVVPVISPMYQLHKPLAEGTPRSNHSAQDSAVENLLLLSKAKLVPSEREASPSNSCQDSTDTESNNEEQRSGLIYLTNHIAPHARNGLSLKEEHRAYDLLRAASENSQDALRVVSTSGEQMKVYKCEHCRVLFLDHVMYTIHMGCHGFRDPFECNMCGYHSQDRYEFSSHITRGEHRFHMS
T2 sequence (Q96SW2 whole entry): as the sequence (Q96SW2 whole entry) above
T2 sequence (Q16531 whole entry partner): as the sequence (Q16531 whole entry partner) above

IKZF2 = molecular target: T3, IKZF2 (Homo sapiens, UniProt Q96SW2+Q9UKS7); test: as above; type: cell-based; details: Western blot, 24 hours of compound treatment, compounds tested at 50 nM and 500 nM (concentration for the table not stated)
T3 construct: effects of the compounds of the present disclosure on the expression of target proteins in cells; endogenous in cells; host or cells: human PBMCs (Milecell Biotechnologies)
T3 sequence (Q9UKS7 whole entry): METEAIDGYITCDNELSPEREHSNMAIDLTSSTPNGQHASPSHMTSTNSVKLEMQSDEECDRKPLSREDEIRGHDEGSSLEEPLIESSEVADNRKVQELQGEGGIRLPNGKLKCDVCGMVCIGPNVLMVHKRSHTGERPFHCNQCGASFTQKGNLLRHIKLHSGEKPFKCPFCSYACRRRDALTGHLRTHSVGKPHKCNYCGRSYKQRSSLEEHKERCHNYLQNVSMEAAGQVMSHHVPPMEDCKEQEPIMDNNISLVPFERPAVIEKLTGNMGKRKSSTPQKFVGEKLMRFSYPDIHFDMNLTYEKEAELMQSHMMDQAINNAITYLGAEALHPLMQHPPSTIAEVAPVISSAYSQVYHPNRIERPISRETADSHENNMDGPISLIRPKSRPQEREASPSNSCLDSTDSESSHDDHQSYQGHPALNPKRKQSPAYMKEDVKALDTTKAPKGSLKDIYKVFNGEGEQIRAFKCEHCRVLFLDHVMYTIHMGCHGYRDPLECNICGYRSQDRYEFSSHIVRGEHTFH
T3 sequence (Q96SW2 whole entry): as the sequence (Q96SW2 whole entry) above
T3 sequence (Q16531 whole entry partner): as the sequence (Q16531 whole entry partner) above

IKZF3 = molecular target: T4, IKZF3 (Homo sapiens, UniProt Q96SW2+Q9UKT9); test: as above; type: cell-based; details: Western blot, 24 hours of compound treatment, compounds tested at 50 nM and 500 nM (concentration for the table not stated)
T4 construct: effects of the compounds of the present disclosure on the expression of target proteins in cells; endogenous in cells; host or cells: human PBMCs (Milecell Biotechnologies)
T4 sequence (Q9UKT9 whole entry): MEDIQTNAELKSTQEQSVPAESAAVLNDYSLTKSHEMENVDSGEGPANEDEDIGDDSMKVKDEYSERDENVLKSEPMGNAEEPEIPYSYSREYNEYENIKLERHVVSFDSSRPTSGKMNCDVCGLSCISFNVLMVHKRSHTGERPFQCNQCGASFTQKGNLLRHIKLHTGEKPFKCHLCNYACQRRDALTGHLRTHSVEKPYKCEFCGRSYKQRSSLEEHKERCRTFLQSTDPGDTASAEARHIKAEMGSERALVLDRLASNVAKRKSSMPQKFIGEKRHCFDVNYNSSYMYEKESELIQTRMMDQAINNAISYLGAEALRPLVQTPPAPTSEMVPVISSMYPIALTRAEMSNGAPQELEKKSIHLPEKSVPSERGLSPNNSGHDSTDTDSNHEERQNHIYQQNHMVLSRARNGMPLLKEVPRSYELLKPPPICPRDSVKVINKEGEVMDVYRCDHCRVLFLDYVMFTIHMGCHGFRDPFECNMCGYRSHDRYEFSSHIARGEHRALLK
T4 sequence (Q96SW2 whole entry): as the sequence (Q96SW2 whole entry) above
T4 sequence (Q16531 whole entry partner): as the sequence (Q16531 whole entry partner) above

WEE1 = molecular target: T5, WEE1 (Homo sapiens, UniProt P30291+Q96SW2); test: as above; type: cell-based; details: Western blot, 24 hours of compound treatment, compounds tested at 50 nM and 500 nM (concentration for the table not stated)
T5 construct: effects of the compounds of the present disclosure on the expression of target proteins in cells; endogenous in cells; host or cells: human PBMCs (Milecell Biotechnologies)
T5 sequence (P30291 whole entry): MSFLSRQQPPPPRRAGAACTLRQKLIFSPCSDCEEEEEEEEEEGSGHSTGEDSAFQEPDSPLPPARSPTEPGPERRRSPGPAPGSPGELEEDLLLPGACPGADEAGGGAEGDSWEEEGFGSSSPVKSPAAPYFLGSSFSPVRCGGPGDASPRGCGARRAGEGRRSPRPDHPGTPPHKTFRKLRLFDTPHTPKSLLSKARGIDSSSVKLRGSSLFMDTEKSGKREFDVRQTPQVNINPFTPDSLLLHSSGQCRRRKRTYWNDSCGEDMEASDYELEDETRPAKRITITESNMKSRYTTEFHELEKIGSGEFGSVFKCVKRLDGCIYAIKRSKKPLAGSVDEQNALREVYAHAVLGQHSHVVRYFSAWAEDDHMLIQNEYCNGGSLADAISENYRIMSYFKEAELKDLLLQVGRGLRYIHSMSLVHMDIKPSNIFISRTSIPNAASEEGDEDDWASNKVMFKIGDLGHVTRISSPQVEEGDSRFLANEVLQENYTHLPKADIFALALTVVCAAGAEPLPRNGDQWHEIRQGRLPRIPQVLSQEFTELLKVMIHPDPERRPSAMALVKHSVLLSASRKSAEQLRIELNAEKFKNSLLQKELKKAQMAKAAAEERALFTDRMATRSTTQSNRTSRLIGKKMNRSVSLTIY
T5 sequence (Q96SW2 whole entry): as the sequence (Q96SW2 whole entry) above
T5 sequence (Q16531 whole entry partner): as the sequence (Q16531 whole entry partner) above

GSPT1 = test: as above; type: cell-based, Human; details: Western blot, 24 hours of compound treatment, compounds tested at 50 nM and 500 nM (concentration for the table not stated)
[1] = molecular target: T6, human Cereblon WT GST-tagged protein (Homo sapiens, UniProt Q96SW2); test: CRBN-binding affinity, HTRF (CEREBLON BINDING kit); details: for inhibition at 0.5 µM: read-out: Inhibition Rate at 0.5 µM (%); for inhibition at 2 µM: read-out: Inhibition Rate at 2 µM (%)
T6 construct: purchased CISBIO 64BDCRBNPEH
T6 sequence (Q96SW2 whole entry): as the sequence (Q96SW2 whole entry) above

Row | Compound | inhibition at 0.5 µM [1] [%] | inhibition at 2 µM [1] [%] | CK1α substrate protein remaining % (CK1α) | IKZF 1 substrate protein remaining % (IKZF1) | IKZF2 substrate protein remaining % (IKZF2) | IKZF3 substrate protein remaining % (IKZF3) | Wee1 substrate protein remaining % (WEE1) | GSPT1 substrate protein remaining % (GSPT1)
1 | O=C1CCC(N2Cc3cc(CN4CCC(c5ccc(Br)cc5)CC4)ccc3C2=S)C(=O)N1 (stereo not drawn) [GT-08618, 3-(5-((4-(4-bromophenyl)piperidin-1-yl)methyl)-1-thioxoisoindolin-2-yl)piperidine-2,6-dione] | 30 to 40 | 60 to 80 | B (80%< substrate protein remaining %≤ 100%) | B (80%< substrate protein remaining %≤ 100%) | B (80%< substrate protein remaining %≤ 100%) | B (80%< substrate protein remaining %≤ 100%) | B (80%< substrate protein remaining %≤ 100%) | A (0% ≤ substrate protein remaining % ≤ 80%)
2 | O=C1CCC(N2Cc3cc(CN4CCC(c5ccc(F)cc5)CC4)ccc3C2=S)C(=O)N1 (stereo not drawn) [GT-08621, 3-(5-((4-(4-fluorophenyl)piperidin-1-yl)methyl)-1-thioxoisoindolin-2-yl)piperidine-2,6-dione] | 53 to 60 | 80 to 100 | B (80%< substrate protein remaining %≤ 100%) | B (80%< substrate protein remaining %≤ 100%) | A (0% ≤ substrate protein remaining % ≤ 80%) | B (80%< substrate protein remaining %≤ 100%) | B (80%< substrate protein remaining %≤ 100%) | A (0% ≤ substrate protein remaining % ≤ 80%)
3 | O=C1CCC(N2Cc3cc(CN4CCN(c5cc(F)cc(F)c5)CC4)ccc3C2=S)C(=O)N1 (stereo not drawn) [GT-08628, 3-(5-((4-(3,5-difluorophenyl)piperazin-1-yl)methyl)-1-thioxoisoindolin-2-yl)piperidine-2,6-dione] | 53 to 60 | 80 to 100 | B (80%< substrate protein remaining %≤ 100%) | B (80%< substrate protein remaining %≤ 100%) | B (80%< substrate protein remaining %≤ 100%) | B (80%< substrate protein remaining %≤ 100%) | B (80%< substrate protein remaining %≤ 100%) | A (0% ≤ substrate protein remaining % ≤ 80%)
4 | O=C1CCC(N2Cc3c(CN4CCN(c5cc(Cl)cc(Cl)c5)CC4)cccc3C2=S)C(=O)N1 (stereo not drawn) [GT-08629, 3-(4-((4-(3,5-dichlorophenyl)piperazin-1-yl)methyl)-1-thioxoisoindolin-2-yl)piperidine-2,6-dione] | 40 to 53 | 60 to 80 | A (0% ≤ substrate protein remaining % ≤ 80%) | B (80%< substrate protein remaining %≤ 100%) | B (80%< substrate protein remaining %≤ 100%) | B (80%< substrate protein remaining %≤ 100%) | A (0% ≤ substrate protein remaining % ≤ 80%) | B (80%< substrate protein remaining %≤ 100%)
5 | O=C1CCC(N2Cc3c(CN4CCN(c5c(F)cccc5F)CC4)cccc3C2=S)C(=O)N1 (stereo not drawn) [GT-08630, 3-(4-((4-(2,6-difluorophenyl)piperazin-1-yl)methyl)-1-thioxoisoindolin-2-yl)piperidine-2,6-dione] | 53 to 60 | 60 to 80 | B (80%< substrate protein remaining %≤ 100%) | B (80%< substrate protein remaining %≤ 100%) | B (80%< substrate protein remaining %≤ 100%) | B (80%< substrate protein remaining %≤ 100%) | A (0% ≤ substrate protein remaining % ≤ 80%) | A (0% ≤ substrate protein remaining % ≤ 80%)
6 | O=C1CCC(N2Cc3c(CN4CCN(c5ccc(F)c(F)c5)CC4)cccc3C2=S)C(=O)N1 (stereo not drawn) [GT-08631, 3-(4-((4-(3,4-difluorophenyl)piperazin-1-yl)methyl)-1-thioxoisoindolin-2-yl)piperidine-2,6-dione] | 60 to 80 | 80 to 100 | B (80%< substrate protein remaining %≤ 100%) | B (80%< substrate protein remaining %≤ 100%) | B (80%< substrate protein remaining %≤ 100%) | B (80%< substrate protein remaining %≤ 100%) | A (0% ≤ substrate protein remaining % ≤ 80%) | B (80%< substrate protein remaining %≤ 100%)
7 | O=C1CCC(N2Cc3c(CN4CCN(c5cc(F)cc(F)c5)CC4)cccc3C2=S)C(=O)N1 (stereo not drawn) [GT-08632, 3-(4-((4-(3,5-difluorophenyl)piperazin-1-yl)methyl)-1-thioxoisoindolin-2-yl)piperidine-2,6-dione] | 60 to 80 | 80 to 100 | B (80%< substrate protein remaining %≤ 100%) | B (80%< substrate protein remaining %≤ 100%) | B (80%< substrate protein remaining %≤ 100%) | B (80%< substrate protein remaining %≤ 100%) | A (0% ≤ substrate protein remaining % ≤ 80%) | B (80%< substrate protein remaining %≤ 100%)

Further lines, with some results ahead:

Row | inhibition at 0.5 µM [1] [%] | inhibition at 2 µM [1] [%] | Compound | CK1α substrate protein remaining % (CK1α) | IKZF 1 substrate protein remaining % (IKZF1) | IKZF2 substrate protein remaining % (IKZF2) | IKZF3 substrate protein remaining % (IKZF3) | Wee1 substrate protein remaining % (WEE1) | GSPT1 substrate protein remaining % (GSPT1)
8 | 30 to 40 | 60 to 80 | O=C1CCC(N2Cc3cc(CN4CCN(c5ccc(Cl)cc5Cl)CC4)ccc3C2=S)C(=O)N1 (stereo not drawn) [GT-08604, 3-(5-((4-(2,4-dichlorophenyl)piperazin-1-yl)methyl)-1-thioxoisoindolin-2-yl)piperidine-2,6-dione] | B (80%< substrate protein remaining %≤ 100%) | B (80%< substrate protein remaining %≤ 100%) | B (80%< substrate protein remaining %≤ 100%) | B (80%< substrate protein remaining %≤ 100%) | B (80%< substrate protein remaining %≤ 100%) | A (0% ≤ substrate protein remaining % ≤ 80%)
9 | 60 to 80 | 80 to 100 | O=C1CCC(N2Cc3cc(CN4CCN(c5ccc(F)cc5F)CC4)ccc3C2=S)C(=O)N1 (stereo not drawn) [GT-08613, 3-(5-((4-(2,4-difluorophenyl)piperazin-1-yl)methyl)-1-thioxoisoindolin-2-yl)piperidine-2,6-dione] | B (80%< substrate protein remaining %≤ 100%) | B (80%< substrate protein remaining %≤ 100%) | B (80%< substrate protein remaining %≤ 100%) | B (80%< substrate protein remaining %≤ 100%) | B (80%< substrate protein remaining %≤ 100%) | A (0% ≤ substrate protein remaining % ≤ 80%)
10 | 60 to 80 | 80 to 100 | O=C1CCC(N2Cc3cc(CN4CCN(c5cc(F)ccc5F)CC4)ccc3C2=S)C(=O)N1 (stereo not drawn) [GT-08625, 3-(5-((4-(2,5-difluorophenyl)piperazin-1-yl)methyl)-1-thioxoisoindolin-2-yl)piperidine-2,6-dione] | A (0% ≤ substrate protein remaining % ≤ 80%) | B (80%< substrate protein remaining %≤ 100%) | B (80%< substrate protein remaining %≤ 100%) | B (80%< substrate protein remaining %≤ 100%) | B (80%< substrate protein remaining %≤ 100%) | A (0% ≤ substrate protein remaining % ≤ 80%)
11 | 60 to 80 | 80 to 100 | O=C1CCC(N2Cc3cc(CN4CCN(c5c(F)cccc5F)CC4)ccc3C2=S)C(=O)N1 (stereo not drawn) [GT-08626, 3-(5-((4-(2,6-difluorophenyl)piperazin-1-yl)methyl)-1-thioxoisoindolin-2-yl)piperidine-2,6-dione] | B (80%< substrate protein remaining %≤ 100%) | B (80%< substrate protein remaining %≤ 100%) | B (80%< substrate protein remaining %≤ 100%) | B (80%< substrate protein remaining %≤ 100%) | B (80%< substrate protein remaining %≤ 100%) | A (0% ≤ substrate protein remaining % ≤ 80%)
12 | 60 to 80 | 80 to 100 | O=C1CCC(N2Cc3cc(CN4CCN(c5ccc(F)c(F)c5)CC4)ccc3C2=S)C(=O)N1 (stereo not drawn) [GT-08627, 3-(5-((4-(3,4-difluorophenyl)piperazin-1-yl)methyl)-1-thioxoisoindolin-2-yl)piperidine-2,6-dione] | B (80%< substrate protein remaining %≤ 100%) | B (80%< substrate protein remaining %≤ 100%) | B (80%< substrate protein remaining %≤ 100%) | B (80%< substrate protein remaining %≤ 100%) | B (80%< substrate protein remaining %≤ 100%) | A (0% ≤ substrate protein remaining % ≤ 80%)
